Experimental data from the supplement of paper PMC13207355.

What was measured:
Details in all cases: exposure time: 72 h
E13 [1] = patient-derived glioblastoma stem cells of classical subtype; experiment: surviving fraction (nuclei count normalised to DMSO); higher = more cells surviving (less toxic)
E21 [2] = patient-derived glioblastoma stem cells of mesenchymal subtype; experiment: as above
E28 [3] = patient-derived glioblastoma stem cells of classical subtype; experiment: as above
E31 [4] = patient-derived glioblastoma stem cells of proneural subtype; experiment: as above
E34 [5] = patient-derived glioblastoma stem cells of proneural subtype; experiment: as above
E57 [6] = patient-derived glioblastoma stem cells of mesenchymal subtype; experiment: as above
FT3469 [7] = normal neural stem cell line; experiment: as above
E13 [8] = experiment: phenotypic distance (Euclidean, principal components) from DMSO controls (arbitrary units); higher = stronger morphological change
E21 [9] = experiment: as above
E28 [10] = experiment: as above
E31 [11] = experiment: as above
E34 [12] = experiment: as above
E57 [13] = experiment: as above
FT3469 [14] = experiment: as above
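Wherever phenotypic distance (Euclidean, principal components) from DMSO controls is given: cell Painting imaging in 384-well plates, CellProfiler features reduced to at least 20 principal components, Euclidean distance versus same-plate DMSO vehicle wells (0.1% v/v), median over six images per well.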
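Wherever surviving fraction (nuclei count normalised to DMSO) is given: nuclei counted by high-content imaging of Hoechst-stained cells in laminin-coated 384-well plates, relative to 0.1% DMSO vehicle wells, with staurosporine as cell-death control.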

COc1cccc2c(NCc3ccccc3)nc(-n3c(N)nc4ccccc43)nc12 [ML240]
surviving fraction (E13 [1]; 4.1 nM): 1.1 | surviving fraction (E13 [1]; 12.3 nM): 0.999 | surviving fraction (E13 [1]; 37 nM): 1.1 | surviving fraction (E13 [1]; 111.1 nM): 1.02 | surviving fraction (E13 [1]; 333.3 nM): 0.985 | surviving fraction (E13 [1]; 1000 nM): 0.147 | surviving fraction (E13 [1]; 3000 nM): 0.00521 | surviving fraction (E21 [2]; 4.1 nM): 1.05 | surviving fraction (E21 [2]; 12.3 nM): 1.01 | surviving fraction (E21 [2]; 37 nM): 1.02 | surviving fraction (E21 [2]; 111.1 nM): 1.1 | surviving fraction (E21 [2]; 333.3 nM): 1.03 | surviving fraction (E21 [2]; 1000 nM): 1.11 | surviving fraction (E21 [2]; 3000 nM): 0.0028 | surviving fraction (E28 [3]; 4.1 nM): 1.09 | surviving fraction (E28 [3]; 12.3 nM): 0.996 | surviving fraction (E28 [3]; 37 nM): 1.01 | surviving fraction (E28 [3]; 111.1 nM): 1.17 | surviving fraction (E28 [3]; 333.3 nM): 1.03 | surviving fraction (E28 [3]; 1000 nM): 0.32 | surviving fraction (E28 [3]; 3000 nM): 0.0108 | surviving fraction (E31 [4]; 4.1 nM): 0.934 | surviving fraction (E31 [4]; 12.3 nM): 1.36 | surviving fraction (E31 [4]; 37 nM): 1.1 | surviving fraction (E31 [4]; 111.1 nM): 1.17 | surviving fraction (E31 [4]; 333.3 nM): 1.19 | surviving fraction (E31 [4]; 1000 nM): 0.0987 | surviving fraction (E31 [4]; 3000 nM): 0 | surviving fraction (E34 [5]; 4.1 nM): 1.18 | surviving fraction (E34 [5]; 12.3 nM): 1.12 | surviving fraction (E34 [5]; 37 nM): 1.04 | surviving fraction (E34 [5]; 111.1 nM): 1.05 | surviving fraction (E34 [5]; 333.3 nM): 1.18 | surviving fraction (E34 [5]; 1000 nM): 0.54 | surviving fraction (E34 [5]; 3000 nM): 0.00732 | surviving fraction (E57 [6]; 4.1 nM): 0.984 | surviving fraction (E57 [6]; 12.3 nM): 0.993 | surviving fraction (E57 [6]; 37 nM): 1.05 | surviving fraction (E57 [6]; 111.1 nM): 0.972 | surviving fraction (E57 [6]; 333.3 nM): 1.08 | surviving fraction (E57 [6]; 1000 nM): 0.255 | surviving fraction (E57 [6]; 3000 nM): 0.00471 | surviving fraction (FT3469 [7]; 4.1 nM): 0.963 | surviving fraction (FT3469 [7]; 12.3 nM): 1.03 | surviving fraction (FT3469 [7]; 37 nM): 1.15 | surviving fraction (FT3469 [7]; 111.1 nM): 1.33 | surviving fraction (FT3469 [7]; 333.3 nM): 1.25 | surviving fraction (FT3469 [7]; 1000 nM): 0.68 | surviving fraction (FT3469 [7]; 3000 nM): 0.00884 | phenotypic distance (E13 [8]; 4.1 nM): 0.694 | phenotypic distance (E13 [8]; 12.3 nM): 0.435 | phenotypic distance (E13 [8]; 37 nM): 0.787 | phenotypic distance (E13 [8]; 111.1 nM): 0.753 | phenotypic distance (E13 [8]; 333.3 nM): 0.67 | phenotypic distance (E13 [8]; 1000 nM): 8.35 | phenotypic distance (E13 [8]; 3000 nM): 10.2 | phenotypic distance (E21 [9]; 4.1 nM): 0.814 | phenotypic distance (E21 [9]; 12.3 nM): 0.418 | phenotypic distance (E21 [9]; 37 nM): 0.532 | phenotypic distance (E21 [9]; 111.1 nM): 0.655 | phenotypic distance (E21 [9]; 333.3 nM): 0.51 | phenotypic distance (E21 [9]; 1000 nM): 1.08 | phenotypic distance (E21 [9]; 3000 nM): 13.5 | phenotypic distance (E28 [10]; 4.1 nM): 0.413 | phenotypic distance (E28 [10]; 12.3 nM): 0.802 | phenotypic distance (E28 [10]; 37 nM): 0.589 | phenotypic distance (E28 [10]; 111.1 nM): 0.977 | phenotypic distance (E28 [10]; 333.3 nM): 0.531 | phenotypic distance (E28 [10]; 1000 nM): 5.33 | phenotypic distance (E28 [10]; 3000 nM): 7.6 | phenotypic distance (E31 [11]; 4.1 nM): 0.647 | phenotypic distance (E31 [11]; 12.3 nM): 0.799 | phenotypic distance (E31 [11]; 37 nM): 0.394 | phenotypic distance (E31 [11]; 111.1 nM): 0.491 | phenotypic distance (E31 [11]; 333.3 nM): 0.297 | phenotypic distance (E31 [11]; 1000 nM): 6.73 | phenotypic distance (E31 [11]; 3000 nM): 18.7 | phenotypic distance (E34 [12]; 4.1 nM): 0.596 | phenotypic distance (E34 [12]; 12.3 nM): 0.636 | phenotypic distance (E34 [12]; 37 nM): 0.602 | phenotypic distance (E34 [12]; 111.1 nM): 0.587 | phenotypic distance (E34 [12]; 333.3 nM): 0.358 | phenotypic distance (E34 [12]; 1000 nM): 1.49 | phenotypic distance (E34 [12]; 3000 nM): 14.2 | phenotypic distance (E57 [13]; 4.1 nM): 0.375 | phenotypic distance (E57 [13]; 12.3 nM): 0.566 | phenotypic distance (E57 [13]; 37 nM): 0.385 | phenotypic distance (E57 [13]; 111.1 nM): 0.473 | phenotypic distance (E57 [13]; 333.3 nM): 1.84 | phenotypic distance (E57 [13]; 1000 nM): 4.85 | phenotypic distance (E57 [13]; 3000 nM): 6.71 | phenotypic distance (FT3469 [14]; 4.1 nM): 0.656 | phenotypic distance (FT3469 [14]; 12.3 nM): 0.706 | phenotypic distance (FT3469 [14]; 37 nM): 0.538 | phenotypic distance (FT3469 [14]; 111.1 nM): 1.16 | phenotypic distance (FT3469 [14]; 333.3 nM): 0.736 | phenotypic distance (FT3469 [14]; 1000 nM): 1.85 | phenotypic distance (FT3469 [14]; 3000 nM): 11.7
